# Laboratory results published in ChEMBL document CHEMBL3885881, “DrugMatrix”.
# Species on record: Rattus norvegicus
# Test: DrugMatrix - Regimen: Daily Repeat
# Format: toxicity, organism-based, Sprague-Dawley
# Design: regimen Daily Repeat, gender Male, age 6-8 weeks
# Settings: in vivo, po, route oral GAVAGE, vehicle .5 % CMC; for ABSOLUTE BASOPHIL / ABSOLUTE EOSINOPHIL / ABSOLUTE LYMPHOCYTE / ABSOLUTE MONOCYTE / ABSOLUTE SEGMENTED NEUTROPHIL / BASOPHIL / EOSINOPHIL / ERYTHROCYTE COUNT / HEMATOCRIT / HEMOGLOBIN / LEUKOCYTE COUNT / LYMPHOCYTE / MEAN CORPUSCULAR HEMOGLOBIN / MEAN CORPUSCULAR HEMOGLOBIN CONCENTRATION / MEAN CORPUSCULAR VOLUME / MONOCYTE / NEUTROPHIL / NUCLEATED RED BLOOD CELLS / PLATELET COUNT: tissue Blood; for ALANINE AMINOTRANSFERASE / ALBUMIN / ALKALINE PHOSPHATASE / ASPARTATE AMINOTRANSFERASE / BLOOD UREA NITROGEN / CARBON DIOXIDE / CHLORIDE / CHOLESTEROL / CREATINE PHOSPHOKINASE / CREATININE / LACTATE DEHYDROGENASE / LIPASE / PHOSPHORUS / SODIUM / TOTAL BILIRUBIN / TOTAL PROTEIN / URIC ACID: tissue Plasma
# [1] = 29 mg/kg, 72 h, dose level Low, time 3 day
# [2] = 29 mg/kg, 120 h, dose level Low, time 5 day
# [3] = 1169 mg/kg, 72 h, dose level High, time 3 day
# [4] = 1169 mg/kg, 120 h, dose level High, time 5 day
structure (smiles),measurement,setting,value
Nc1nc(O)c2ncn(COC(CO)CO)c2n1 [GANCICLOVIR],ABSOLUTE BASOPHIL,[1],0 CELLS/uL
same,ABSOLUTE EOSINOPHIL,[1],152 CELLS/uL
same,ABSOLUTE LYMPHOCYTE,[1],12965 CELLS/uL
same,ABSOLUTE MONOCYTE,[1],505.67 CELLS/uL
same,ABSOLUTE SEGMENTED NEUTROPHIL,[1],1544 CELLS/uL
same,BASOPHIL,[1],0%
same,EOSINOPHIL,[1],1%
same,ERYTHROCYTE COUNT,[1],5.64 x10E6/uL
same,HEMATOCRIT,[1],35.17%
same,HEMOGLOBIN,[1],13.17 G/DL
same,LEUKOCYTE COUNT,[1],15.17 x10E3/uL
same,LYMPHOCYTE,[1],85.67%
same,MEAN CORPUSCULAR HEMOGLOBIN,[1],23.37 pg
same,MEAN CORPUSCULAR HEMOGLOBIN CONCENTRATION,[1],37.47 G/DL
same,MEAN CORPUSCULAR VOLUME,[1],62.37 fL
same,MONOCYTE,[1],3.33%
same,NEUTROPHIL,[1],10%
same,NUCLEATED RED BLOOD CELLS,[1],0 /100WBC
same,PLATELET COUNT,[1],1360 x10E3/uL
same,ALANINE AMINOTRANSFERASE,[1],48 u/L
same,ALBUMIN,[1],4.17 G/DL
same,ALKALINE PHOSPHATASE,[1],319.67 u/L
same,ASPARTATE AMINOTRANSFERASE,[1],96 u/L
same,BLOOD UREA NITROGEN,[1],18 mg/dL
same,CARBON DIOXIDE,[1],24 mmol/L
same,CHLORIDE,[1],103 MEQ/L
same,CHOLESTEROL,[1],67.67 mg/dL
same,CREATINE PHOSPHOKINASE,[1],635.33 u/L
same,CREATININE,[1],0.21 mg/dL
same,LACTATE DEHYDROGENASE,[1],646.33 u/L
same,LIPASE,[1],8.67 u/L
same,PHOSPHORUS,[1],14.2 mg/dL
same,SODIUM,[1],145.5 MEQ/L
same,TOTAL BILIRUBIN,[1],0.2 mg/dL
same,TOTAL PROTEIN,[1],5.9 G/DL
same,URIC ACID,[1],2.23 mg/dL
same,ABSOLUTE BASOPHIL,[2],0 CELLS/uL
same,ABSOLUTE EOSINOPHIL,[2],86.67 CELLS/uL
same,ABSOLUTE LYMPHOCYTE,[2],11979.33 CELLS/uL
same,ABSOLUTE MONOCYTE,[2],137.33 CELLS/uL
same,ABSOLUTE SEGMENTED NEUTROPHIL,[2],1530 CELLS/uL
same,BASOPHIL,[2],0%
same,EOSINOPHIL,[2],0.67%
same,ERYTHROCYTE COUNT,[2],5.69 x10E6/uL
same,HEMATOCRIT,[2],35.37%
same,HEMOGLOBIN,[2],13.23 G/DL
same,LEUKOCYTE COUNT,[2],13.73 x10E3/uL
same,LYMPHOCYTE,[2],87%
same,MEAN CORPUSCULAR HEMOGLOBIN,[2],23.27 pg
same,MEAN CORPUSCULAR HEMOGLOBIN CONCENTRATION,[2],37.47 G/DL
same,MEAN CORPUSCULAR VOLUME,[2],62.13 fL
same,MONOCYTE,[2],1%
same,NEUTROPHIL,[2],11.33%
same,NUCLEATED RED BLOOD CELLS,[2],0 /100WBC
same,PLATELET COUNT,[2],1168 x10E3/uL
same,ALANINE AMINOTRANSFERASE,[2],47.67 u/L
same,ALBUMIN,[2],4.2 G/DL
same,ALKALINE PHOSPHATASE,[2],323 u/L
same,ASPARTATE AMINOTRANSFERASE,[2],91.67 u/L
same,BLOOD UREA NITROGEN,[2],19.33 mg/dL
same,CARBON DIOXIDE,[2],25.33 mmol/L
same,CHLORIDE,[2],106.33 MEQ/L
same,CHOLESTEROL,[2],74.67 mg/dL
same,CREATINE PHOSPHOKINASE,[2],428.33 u/L
same,CREATININE,[2],0.15 mg/dL
same,LACTATE DEHYDROGENASE,[2],720 u/L
same,LIPASE,[2],8.67 u/L
same,PHOSPHORUS,[2],11.4 mg/dL
same,SODIUM,[2],145.9 MEQ/L
same,TOTAL BILIRUBIN,[2],0.13 mg/dL
same,TOTAL PROTEIN,[2],5.77 G/DL
same,URIC ACID,[2],0.83 mg/dL
same,ABSOLUTE BASOPHIL,[3],0 CELLS/uL
same,ABSOLUTE EOSINOPHIL,[3],180.33 CELLS/uL
same,ABSOLUTE LYMPHOCYTE,[3],12632.33 CELLS/uL
same,ABSOLUTE MONOCYTE,[3],432 CELLS/uL
same,ABSOLUTE SEGMENTED NEUTROPHIL,[3],1155.33 CELLS/uL
same,BASOPHIL,[3],0%
same,EOSINOPHIL,[3],1.67%
same,ERYTHROCYTE COUNT,[3],5.52 x10E6/uL
same,HEMATOCRIT,[3],33.9%
same,HEMOGLOBIN,[3],12.9 G/DL
same,LEUKOCYTE COUNT,[3],14.4 x10E3/uL
same,LYMPHOCYTE,[3],87%
same,MEAN CORPUSCULAR HEMOGLOBIN,[3],23.43 pg
same,MEAN CORPUSCULAR HEMOGLOBIN CONCENTRATION,[3],38.07 G/DL
same,MEAN CORPUSCULAR VOLUME,[3],61.57 fL
same,MONOCYTE,[3],3%
same,NEUTROPHIL,[3],8.33%
same,NUCLEATED RED BLOOD CELLS,[3],0.33 /100WBC
same,PLATELET COUNT,[3],1439 x10E3/uL
same,ALANINE AMINOTRANSFERASE,[3],45.33 u/L
same,ALBUMIN,[3],4.3 G/DL
same,ALKALINE PHOSPHATASE,[3],313.33 u/L
same,ASPARTATE AMINOTRANSFERASE,[3],76 u/L
same,BLOOD UREA NITROGEN,[3],19 mg/dL
same,CARBON DIOXIDE,[3],27.33 mmol/L
same,CHLORIDE,[3],103.67 MEQ/L
same,CHOLESTEROL,[3],79.67 mg/dL
same,CREATINE PHOSPHOKINASE,[3],222.33 u/L
same,CREATININE,[3],0.23 mg/dL
same,LACTATE DEHYDROGENASE,[3],239 u/L
same,LIPASE,[3],9 u/L
same,PHOSPHORUS,[3],12.3 mg/dL
same,SODIUM,[3],145.57 MEQ/L
same,TOTAL BILIRUBIN,[3],0.2 mg/dL
same,TOTAL PROTEIN,[3],5.93 G/DL
same,URIC ACID,[3],1.27 mg/dL
same,ABSOLUTE BASOPHIL,[4],0 CELLS/uL
same,ABSOLUTE EOSINOPHIL,[4],164.33 CELLS/uL
same,ABSOLUTE LYMPHOCYTE,[4],13318 CELLS/uL
same,ABSOLUTE MONOCYTE,[4],365.67 CELLS/uL
same,ABSOLUTE SEGMENTED NEUTROPHIL,[4],1652 CELLS/uL
same,BASOPHIL,[4],0%
same,EOSINOPHIL,[4],1%
same,ERYTHROCYTE COUNT,[4],5.49 x10E6/uL
same,HEMATOCRIT,[4],34.33%
same,HEMOGLOBIN,[4],13.13 G/DL
same,LEUKOCYTE COUNT,[4],15.5 x10E3/uL
same,LYMPHOCYTE,[4],86%
same,MEAN CORPUSCULAR HEMOGLOBIN,[4],23.93 pg
same,MEAN CORPUSCULAR HEMOGLOBIN CONCENTRATION,[4],38.27 G/DL
same,MEAN CORPUSCULAR VOLUME,[4],62.6 fL
same,MONOCYTE,[4],2.33%
same,NEUTROPHIL,[4],10.67%
same,NUCLEATED RED BLOOD CELLS,[4],0.33 /100WBC
same,PLATELET COUNT,[4],1216.67 x10E3/uL
same,ALANINE AMINOTRANSFERASE,[4],42.33 u/L
same,ALBUMIN,[4],4.2 G/DL
same,ALKALINE PHOSPHATASE,[4],345.33 u/L
same,ASPARTATE AMINOTRANSFERASE,[4],78.67 u/L
same,BLOOD UREA NITROGEN,[4],19.67 mg/dL
same,CARBON DIOXIDE,[4],29.33 mmol/L
same,CHLORIDE,[4],102.33 MEQ/L
same,CHOLESTEROL,[4],65.33 mg/dL
same,CREATINE PHOSPHOKINASE,[4],220 u/L
same,CREATININE,[4],0.18 mg/dL
same,LACTATE DEHYDROGENASE,[4],181 u/L
same,LIPASE,[4],8.67 u/L
same,PHOSPHORUS,[4],11.73 mg/dL
same,SODIUM,[4],145.77 MEQ/L
same,TOTAL BILIRUBIN,[4],0.13 mg/dL
same,TOTAL PROTEIN,[4],5.9 G/DL
same,URIC ACID,[4],1.43 mg/dL
